Results from patent US20060121069A1, “Compositions and methods for treating hair loss using oximyl and hydroxylamino prostaglandins” (Duke University, priority 2000, published 2006).

Target: T1, hFP (Homo sapiens, UniProt P43088)
T1 construct: expressed in transfected cells; host or cells: COS-7 cells, transient transfection with LipofectAMINE; membranes prepared
Experiment: Radioligand Binding Assay (receptor competition binding, hFP membranes)
Conditions: competition against 5 nM (3H) PGF2 on hFP membrane from transfected COS-7 cells; method per Reference Example 1; read-out: IC50 of the Prostaglandin
Description: IC50 of a prostaglandin can be determined relative to PGF2α using the Radioligand Binding Assay. As a control, the IC50 for PGF2α itself should be no lower than 1.0 nM and no higher than 5.0 nM.
In this assay, COS-7 cells are transiently transfected with the hFP recombinant plasmid using LipofectAMINE Reagent. Forty-eight hours later, the tranfected cells are washed with Hank's Balanced Salt Solution (HBSS, without CaCl2, MgCl2, MgSO4, or phenol red). The cells are detached with versene, and HBSS is added. The mixture is centrifuged at 200g for 10 minutes, at 4° C. to pellet the cells. The pellet is resuspended in Phosphate-Buffered Saline-EDTA buffer (PBS; 1 mM EDTA; pH 7.4; 4° C.). The cells are disrupted by nitrogen cavitation (Parr model 4639), at 800 psi, for 15 minutes at 4° C. The mixture is centrifuged at 1000 g for 10 minutes at 4° C. The supernatant is centrifuged at 100,000 g for 60 minutes at 4° C. The pellet is resuspended to 1 mg protein/mL TME buffer (50 mM Tris; 10 mM MgCl2; 1 mM EDTA; pH 6.0; 4° C.) based on protein levels measured using the Pierce BCA Protein Assay kit. The homogenate is mixed for 10 seconds using a Kinematica POLYTRON® (available from KINEMATICA AG, Luzernerstrasse147A CH-6014 Littau, Switzerland). The membrane preparations are then stored at −80° C., until thawed for assay use.
The receptor competition binding assays are developed in a 96 well format. Each well contains […] of hFP membrane, 5 nM (3H) PGF2, and the various competing compounds in a total volume of […]. The plates are incubated at 23° C. for 1 hour. The incubation is terminated by rapid filtration using the Packard Filtermate 196 harvester through Packard UNIFILTER® GF/B filters (available from Packard Instrument Co., Inc. of Downers Grove Ill.) pre-wetted with TME buffer. The filter is washed four times with TME buffer. […] The plates are read on a Packard TOPCOUNT® Microplate Scintillation Counter (also available from Packard Instrument Co., Inc.)

T1 sequence (P43088 whole entry): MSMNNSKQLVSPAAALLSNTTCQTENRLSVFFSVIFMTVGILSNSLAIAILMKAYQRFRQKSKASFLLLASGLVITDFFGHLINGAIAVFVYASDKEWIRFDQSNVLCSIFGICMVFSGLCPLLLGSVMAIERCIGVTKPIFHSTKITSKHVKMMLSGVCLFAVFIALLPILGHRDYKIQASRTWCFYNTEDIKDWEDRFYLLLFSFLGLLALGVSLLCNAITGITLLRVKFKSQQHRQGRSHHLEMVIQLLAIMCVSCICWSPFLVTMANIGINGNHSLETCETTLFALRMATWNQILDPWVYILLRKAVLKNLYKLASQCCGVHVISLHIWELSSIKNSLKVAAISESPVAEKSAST

SMILES	IC50
CCCCC[C@H](O)/C=C/[C@H]1/C(=N\O)C[C@H](O)[C@@H]1C/C=C\CCCC(=O)O [Example 1-1]	15 nM
CCCCC[C@H](O)/C=C/[C@H]1C(NO)C[C@H](O)[C@@H]1C/C=C\CCCC(=O)O (stereo partly drawn) [Example 1-2]	150 nM
O=C(O)CCCCCC[C@H]1[C@@H](O)C/C(=N/O)[C@@H]1CC[C@@H](O)CSc1ccccc1	162 nM
